Data as given in ChEMBL document CHEMBL1201862, “PubChem BioAssay data set” (2004).
Active and inactive are the calls of the source.

Legend:
[1] = molecular target: Heat shock protein HSP 90-alpha (Homo sapiens, UniProt P07900); test: Luminescence-based dose response biochemical high throughput screening assay for inhibitors of the Heat Shock Protein 90 (HSP90). [Related pubchem assays: 1831 (Summary AID.), 1846 (Confirmation screen.), 1789 (Primary screen.)]
[2] = NIH3T3 cell viability loss – ATP luminescence, mouse fibroblasts, counter-screen, dose response (AID 2010); format: functional, cell-based;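 note: cells exposed to compound for about 90 hours before reading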
[3] = Trypanosoma cruzi growth suppression in host cells – NIH3T3 host cells, beta-gal luminescence, confirmation (AID 2044); format: functional, cell-based;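 note: intracellular parasites grown in NIH/3T3 mouse fibroblasts as host cells; luminescent beta-galactosidase reporter signal from transgenic T. cruzi replicating inside host cells; inhibitors lower the luminescence signal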
cells [4] = test: cells
[5] = CellTiter-Glo luminescence survival assay, SW480 colon tumor line, concentration-response curve, half-maximal inhibitory concentration (AID 1117338); format: functional
[6] = RKO cell viability reduction, dose response, CellTiter-Glo luminescence (AID 1117322); format: functional
[7] = cytotoxicity toward HCT116 cells – cell-based, CellTiter-Glo luminescence, IC50, dose response (AID 1117332); format: functional; conditions: HCT-116
[8] = cytotoxicity toward Colo320 cells – cell-based, CellTiter-Glo luminescence, IC50, dose response (AID 1117334); format: functional; conditions: COLO 320
[9] = Reduced DLD-1 viability, concentration-response, CellTiter-Glo luminescence (AID 1117352); format: functional
[10] = cytotoxicity toward HT-29 cells – cell-based, CellTiter-Glo luminescence, IC50, dose response (AID 1117330); format: functional
[11] = rise of 4N DNA cells, HeLa – IC50, dose response (AID 1117351); format: functional, cell-based
[12] = rise of 2N DNA cells, HeLa – IC50, dose response (AID 1117349); format: functional, cell-based
cells [13] = test: cells; remark: listed apart in the source
Streptococcus = test: Luminescence Microorganism-Based Dose Response Follow up to Identify Compounds Cytotoxic to Streptococcus. [Related pubchem assays: 1677 (Project Summary), 1915, 1914, 1902 (Retest at Dose), 1900 (Counter Screen), 1662 (Primary HTS)]; format: functional, organism-based
[14] = molecular target: T1, Voltage-gated N-type calcium channel alpha-1B subunit/Amyloid beta A4 precursor protein-binding family A member 1 (Homo sapiens, UniProt Q00975+Q02410); test: disruptors of Mint-PDZ/N-type channel peptide interaction – biochemical, HTRF, set 2, SAR follow-up (AID 434980); format: functional
[15] = molecular target: T1, Voltage-gated N-type calcium channel alpha-1B subunit/Amyloid beta A4 precursor protein-binding family A member 1; test: disruptors of Mint-PDZ/N-type channel peptide interaction – biochemical, HTRF, SAR follow-up (AID 2489); format: functional
[16] = molecular target: Mitogen-activated protein kinase 10 (Homo sapiens, UniProt P53779); test: Dose response biochemical screening assay for inhibitors of c-Jun N-Terminal Kinase 3 (JNK3). [Related pubchem assays: 746 ]
Vero = test: cells; format: functional, cell-based; conditions: Chlorocebus sabaeus
[17] = viability of uninfected HEp-2 cells – cell-based, HTS, cytotoxicity control for RSV inhibitor project, dose response (AID 2410); format: functional; conditions: human respiratory syncytial virus
[18] = viability loss in Vero cells – cytotoxicity control for Vif-APOBEC3G degradation inhibitor project, dose response (AID 1117358); format: functional; conditions: Vero
Cytochrome P450 2D6 = Cytochrome P450 2D6 (Homo sapiens, UniProt P10635);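 note: CYP2D6 member of a cytochrome P450 panel assay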
Cytochrome P450 2D6, sequence (P10635 whole entry): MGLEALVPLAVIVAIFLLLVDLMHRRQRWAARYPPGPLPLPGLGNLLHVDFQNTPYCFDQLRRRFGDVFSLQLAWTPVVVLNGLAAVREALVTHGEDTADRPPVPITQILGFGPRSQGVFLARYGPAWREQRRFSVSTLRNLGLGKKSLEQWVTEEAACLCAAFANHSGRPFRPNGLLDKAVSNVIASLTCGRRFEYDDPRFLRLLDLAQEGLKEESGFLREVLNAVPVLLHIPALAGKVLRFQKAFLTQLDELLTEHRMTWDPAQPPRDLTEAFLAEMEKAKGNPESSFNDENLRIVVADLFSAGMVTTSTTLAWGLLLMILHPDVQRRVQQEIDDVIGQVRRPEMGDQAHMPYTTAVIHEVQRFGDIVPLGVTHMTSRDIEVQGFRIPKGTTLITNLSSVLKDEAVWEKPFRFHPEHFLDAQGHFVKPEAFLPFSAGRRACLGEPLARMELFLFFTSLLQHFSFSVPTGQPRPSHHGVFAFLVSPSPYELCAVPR

T1 sequence (Q00975 whole entry): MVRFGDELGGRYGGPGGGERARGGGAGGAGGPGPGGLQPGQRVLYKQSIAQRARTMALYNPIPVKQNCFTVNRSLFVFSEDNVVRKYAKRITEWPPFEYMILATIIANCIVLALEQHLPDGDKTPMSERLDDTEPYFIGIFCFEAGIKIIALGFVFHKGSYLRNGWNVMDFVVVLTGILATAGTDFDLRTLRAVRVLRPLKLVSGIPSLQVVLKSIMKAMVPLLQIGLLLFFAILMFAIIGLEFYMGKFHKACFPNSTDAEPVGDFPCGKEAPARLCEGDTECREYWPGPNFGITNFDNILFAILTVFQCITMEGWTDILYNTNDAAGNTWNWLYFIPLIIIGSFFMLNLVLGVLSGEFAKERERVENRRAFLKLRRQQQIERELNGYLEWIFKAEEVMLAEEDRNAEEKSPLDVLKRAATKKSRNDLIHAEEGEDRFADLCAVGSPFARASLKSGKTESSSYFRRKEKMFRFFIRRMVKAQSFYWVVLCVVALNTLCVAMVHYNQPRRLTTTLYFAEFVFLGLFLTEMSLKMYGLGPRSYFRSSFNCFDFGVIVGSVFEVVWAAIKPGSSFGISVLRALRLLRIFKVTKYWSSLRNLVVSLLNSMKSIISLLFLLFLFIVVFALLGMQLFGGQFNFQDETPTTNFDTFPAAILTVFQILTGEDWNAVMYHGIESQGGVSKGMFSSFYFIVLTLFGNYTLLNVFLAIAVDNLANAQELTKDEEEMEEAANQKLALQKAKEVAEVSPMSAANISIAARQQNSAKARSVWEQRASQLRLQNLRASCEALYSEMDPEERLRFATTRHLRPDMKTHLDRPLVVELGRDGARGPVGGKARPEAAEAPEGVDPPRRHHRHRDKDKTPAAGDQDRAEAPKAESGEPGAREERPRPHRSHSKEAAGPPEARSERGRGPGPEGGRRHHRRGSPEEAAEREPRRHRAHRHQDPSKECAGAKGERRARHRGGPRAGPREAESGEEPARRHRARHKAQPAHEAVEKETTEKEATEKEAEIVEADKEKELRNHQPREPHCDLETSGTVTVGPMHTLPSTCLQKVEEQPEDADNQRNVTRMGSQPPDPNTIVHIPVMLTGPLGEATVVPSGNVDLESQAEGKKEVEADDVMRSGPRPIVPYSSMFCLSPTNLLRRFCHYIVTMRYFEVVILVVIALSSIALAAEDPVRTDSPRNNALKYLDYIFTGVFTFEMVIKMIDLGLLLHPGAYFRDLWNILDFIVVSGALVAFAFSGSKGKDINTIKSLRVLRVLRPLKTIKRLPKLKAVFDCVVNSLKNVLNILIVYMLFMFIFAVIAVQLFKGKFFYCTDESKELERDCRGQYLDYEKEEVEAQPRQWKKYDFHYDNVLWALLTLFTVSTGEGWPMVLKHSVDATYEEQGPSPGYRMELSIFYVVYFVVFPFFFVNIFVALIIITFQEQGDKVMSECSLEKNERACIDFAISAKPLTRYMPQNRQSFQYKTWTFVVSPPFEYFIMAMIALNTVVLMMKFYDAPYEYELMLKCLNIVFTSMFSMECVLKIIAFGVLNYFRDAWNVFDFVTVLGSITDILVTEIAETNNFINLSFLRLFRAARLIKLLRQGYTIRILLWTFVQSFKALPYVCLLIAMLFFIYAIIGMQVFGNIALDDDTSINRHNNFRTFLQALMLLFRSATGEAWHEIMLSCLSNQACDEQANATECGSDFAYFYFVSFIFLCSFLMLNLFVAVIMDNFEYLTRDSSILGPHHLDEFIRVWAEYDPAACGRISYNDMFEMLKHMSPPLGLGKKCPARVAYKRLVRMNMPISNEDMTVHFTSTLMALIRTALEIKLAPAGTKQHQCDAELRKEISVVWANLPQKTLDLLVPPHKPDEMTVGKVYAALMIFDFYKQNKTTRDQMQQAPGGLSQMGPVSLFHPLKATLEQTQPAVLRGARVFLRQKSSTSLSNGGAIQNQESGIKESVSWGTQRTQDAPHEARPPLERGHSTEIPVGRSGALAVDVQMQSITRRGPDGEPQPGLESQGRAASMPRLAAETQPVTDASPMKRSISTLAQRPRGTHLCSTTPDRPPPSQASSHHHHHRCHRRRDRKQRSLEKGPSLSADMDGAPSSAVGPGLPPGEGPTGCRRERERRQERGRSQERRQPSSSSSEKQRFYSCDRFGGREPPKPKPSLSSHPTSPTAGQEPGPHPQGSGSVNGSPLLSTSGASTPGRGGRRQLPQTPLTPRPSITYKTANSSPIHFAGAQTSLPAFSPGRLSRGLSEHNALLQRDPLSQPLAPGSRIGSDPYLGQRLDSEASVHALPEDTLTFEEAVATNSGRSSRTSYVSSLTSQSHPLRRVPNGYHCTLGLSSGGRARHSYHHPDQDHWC
T1 sequence (Q02410 whole entry): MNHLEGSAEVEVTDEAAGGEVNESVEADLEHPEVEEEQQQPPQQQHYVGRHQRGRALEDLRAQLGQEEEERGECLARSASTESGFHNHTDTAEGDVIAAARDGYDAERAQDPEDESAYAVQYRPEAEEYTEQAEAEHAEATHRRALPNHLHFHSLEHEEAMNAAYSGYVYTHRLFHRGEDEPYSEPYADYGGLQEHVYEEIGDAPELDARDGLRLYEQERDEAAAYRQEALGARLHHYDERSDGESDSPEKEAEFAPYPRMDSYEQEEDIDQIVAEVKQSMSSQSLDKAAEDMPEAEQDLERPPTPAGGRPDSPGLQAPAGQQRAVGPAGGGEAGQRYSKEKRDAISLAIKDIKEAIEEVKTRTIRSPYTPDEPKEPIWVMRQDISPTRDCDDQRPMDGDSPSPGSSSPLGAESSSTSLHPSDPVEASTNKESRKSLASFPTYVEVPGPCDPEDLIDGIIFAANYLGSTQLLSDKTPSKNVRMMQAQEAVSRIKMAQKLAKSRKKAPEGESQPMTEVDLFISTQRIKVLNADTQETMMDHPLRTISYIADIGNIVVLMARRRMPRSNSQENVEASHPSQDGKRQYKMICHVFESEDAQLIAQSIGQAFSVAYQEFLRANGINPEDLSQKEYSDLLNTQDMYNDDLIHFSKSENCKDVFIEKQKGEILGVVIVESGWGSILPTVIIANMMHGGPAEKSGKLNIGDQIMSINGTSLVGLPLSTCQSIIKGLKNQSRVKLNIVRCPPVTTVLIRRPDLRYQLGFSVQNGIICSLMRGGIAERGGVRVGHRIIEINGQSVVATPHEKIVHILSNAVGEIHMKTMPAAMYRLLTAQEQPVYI
Mitogen-activated protein kinase 10, sequence (P53779 whole entry): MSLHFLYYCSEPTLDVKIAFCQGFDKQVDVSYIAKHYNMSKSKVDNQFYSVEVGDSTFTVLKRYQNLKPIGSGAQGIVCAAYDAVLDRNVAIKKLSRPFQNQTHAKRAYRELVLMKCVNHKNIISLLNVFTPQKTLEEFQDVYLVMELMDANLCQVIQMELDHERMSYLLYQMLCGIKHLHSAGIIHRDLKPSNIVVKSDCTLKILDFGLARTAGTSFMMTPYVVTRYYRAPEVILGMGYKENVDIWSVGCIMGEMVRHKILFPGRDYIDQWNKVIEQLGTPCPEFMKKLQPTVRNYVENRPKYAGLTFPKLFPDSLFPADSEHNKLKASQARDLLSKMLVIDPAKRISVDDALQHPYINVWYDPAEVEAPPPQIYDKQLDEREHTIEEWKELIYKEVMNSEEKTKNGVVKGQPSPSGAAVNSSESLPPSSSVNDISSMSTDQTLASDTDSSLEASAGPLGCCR

With `O=S(=O)(Cc1ccccc1)N(O)c1ccccc1` the IC50 [1] was 913 nM (active).

With `CCOC(=O)C1CCCN(Cc2ccc(OCc3ccccc3)c(OC)c2)C1` (configuration not stated) the EC50 [2] was > 60 µM (not active), the EC50 [3] was < 100 nM (active) and the EC50 (cells [4]) was 10 nM (active).

For `CC(C)(C)[C@H]1CC[C@H](CC2=C(O)C(=O)c3ccccc3C2=O)CC1` [BUPARVAQUONE], the IC50 [5] was 205 nM (active), the IC50 [6] was 133 nM (active) and the IC50 [7] was 227 nM (active). For the same compound, the IC50 [8] was 255 nM (active), the IC50 [9] was 218 nM (active) and the IC50 [10] was 3.39 µM (active). The IC50 [11] was > 10 µM (inactive) and the IC50 [12] was > 10 µM (inactive).

In the case of `Nc1nnnn1/N=C/c1ccc(O)cc1`, the IC50 (cells [13]) was 2.58 µM (active).

In the case of `CN(C)c1ccc(C(=O)n2c3ccccc3c3ccccc32)cc1`, the EC50 (Streptococcus) was > 500 µM (not active).

In the case of `CC12C=CC(C)(O1)C1C(=O)N(c3ccc4c(c3)OCO4)C(=O)C12` (configuration not stated), the IC50 [14] was > 56.8 µM (inactive) and the IC50 [15] was > 56.8 µM (inactive).

For `Cc1ccc2c(C)nc(NC3=NCN(Cc4ccccc4)CN3)nc2c1`, the IC50 [16] was > 93.1 µM (not active).

For `Cc1nn(Cc2c(Cl)cccc2Cl)c(C)c1NC(=O)c1cc(C(C)C)on1`, the IC50 (Vero) was 10.5 µM (active), the IC50 (cells [13]) was 11.3 µM (active) and the CC50 [17] was 16.8 µM (active).

In the case of `CCC(C)N1C(=O)S/C(=C/c2ccc(Sc3nc4ccccc4[nH]3)o2)C1=O` (configuration not stated), the CC50 [18] was 28.7 µM (active) and the AC50 (Cytochrome P450 2D6) was 3.98 µM (inconclusive).
